In paper PMC7866087, “Evaluation of Computationally Designed Peptides against TWEAK, a Cytokine of the Tumour Necrosis Factor Ligand Family” (International Journal of Molecular Sciences, 2021):
Values joined by “and” are separate entries in the source; they are usually repeats but may differ in a detail not shown here. Identical values can stand only once.

System: TWEAK-Fn14 signalling pathway, BRV5 cells
Test: Cell-based screening of individual peptides, gene expression microarray in TWEAK-stimulated BRV5 cells
Set-up: species or system human
Settings: 6 h; for regulation of probe genes by individual peptides: BRV5 + TWEAK 25 ng/mL, peptides 450 µM; for BIRC2 mRNA expression (normalized to NARS2) / HSP90B1 mRNA expression (normalized to NARS2) / IL6 mRNA expression (normalized to NARS2) / JUN mRNA expression (normalized to NARS2) / MAP4K4 mRNA expression (normalized to NARS2) / MAPK14 mRNA expression (normalized to NARS2) / NFKB2 mRNA expression (normalized to NARS2) / TNFRSF12A mRNA expression (normalized to NARS2) / TRAF2 mRNA expression (normalized to NARS2) / BIRC2 expression Z-Score / HSP90B1 expression Z-Score / IL6 expression Z-Score / JUN expression Z-Score / MAP4K4 expression Z-Score / MAPK14 expression Z-Score / NFKB2 expression Z-Score / TNFRSF12A expression Z-Score / TRAF2 expression Z-Score: individual peptides, BRV5 + TWEAK; for BIRC2 mRNA expression (normalized to NARS2) / HSP90B1 mRNA expression (normalized to NARS2) / IL6 mRNA expression (normalized to NARS2) / JUN mRNA expression (normalized to NARS2) / MAP4K4 mRNA expression (normalized to NARS2) / MAPK14 mRNA expression (normalized to NARS2) / NFKB2 mRNA expression (normalized to NARS2) / TNFRSF12A mRNA expression (normalized to NARS2) / TRAF2 mRNA expression (normalized to NARS2): 450 µM; for BIRC2 expression Z-Score / HSP90B1 expression Z-Score / IL6 expression Z-Score / JUN expression Z-Score / MAP4K4 expression Z-Score / MAPK14 expression Z-Score / NFKB2 expression Z-Score / TNFRSF12A expression Z-Score / TRAF2 expression Z-Score: normalized to NARS2
In short: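 Serum-starved BRV5 cells were treated with individual peptides at 450 µM, given once or re-dosed hourly, every two hours or every three hours, with or without TWEAK at 25 ng/mL. RNA was harvested after 6 h, and expression of TWEAK-Fn14 downstream genes plus two housekeeping genes was quantified by Fluidigm EvaGreen qPCR as Ct and delta Ct values.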

Substance	regulation of probe genes by individual peptides	BIRC2 mRNA expression (normalized to NARS2) (mean of replicate columns)	HSP90B1 mRNA expression (normalized to NARS2) (mean of replicate columns)	IL6 mRNA expression (normalized to NARS2) (mean of replicate columns)	JUN mRNA expression (normalized to NARS2) (mean of replicate columns)	MAP4K4 mRNA expression (normalized to NARS2) (mean of replicate columns)	MAPK14 mRNA expression (normalized to NARS2) (mean of replicate columns)	NFKB2 mRNA expression (normalized to NARS2) (mean of replicate columns)	TNFRSF12A mRNA expression (normalized to NARS2) (mean of replicate columns)	TRAF2 mRNA expression (normalized to NARS2) (mean of replicate columns)	BIRC2 mRNA expression (normalized to NARS2) (replicate column 1)	HSP90B1 mRNA expression (normalized to NARS2) (replicate column 1)	IL6 mRNA expression (normalized to NARS2) (replicate column 1)	JUN mRNA expression (normalized to NARS2) (replicate column 1)	MAP4K4 mRNA expression (normalized to NARS2) (replicate column 1)	MAPK14 mRNA expression (normalized to NARS2) (replicate column 1)	NFKB2 mRNA expression (normalized to NARS2) (replicate column 1)	TNFRSF12A mRNA expression (normalized to NARS2) (replicate column 1)	TRAF2 mRNA expression (normalized to NARS2) (replicate column 1)	BIRC2 mRNA expression (normalized to NARS2) (replicate column 2)	other results
SWYDHMAGDSSY [Peptide 35]	lowest overall expression across all genes	0.4507	1.621	0.002118	0.05317	0.1168	0.1368	0.02465	0.01131	0.008162	0.4318	1.578	0.00212	0.0528	0.1079	0.1402	0.02663	0.01132	0.007774	0.4696	HSP90B1 mRNA expression (normalized to NARS2) (replicate column 2): 1.664; IL6 mRNA expression (normalized to NARS2) (replicate column 2): 0.002116; JUN mRNA expression (normalized to NARS2) (replicate column 2): 0.05355; MAP4K4 mRNA expression (normalized to NARS2) (replicate column 2): 0.1258; MAPK14 mRNA expression (normalized to NARS2) (replicate column 2): 0.1335; NFKB2 mRNA expression (normalized to NARS2) (replicate column 2): 0.02267; TNFRSF12A mRNA expression (normalized to NARS2) (replicate column 2): 0.01129; TRAF2 mRNA expression (normalized to NARS2) (replicate column 2): 0.008551; BIRC2 expression Z-Score (listed as P35): -0.7468; HSP90B1 expression Z-Score (listed as P35): -1.1014 and -1.101; IL6 expression Z-Score (listed as P35): 0.1984; JUN expression Z-Score (listed as P35): -0.5085; MAP4K4 expression Z-Score (listed as P35): -1.7018 and -1.702; MAPK14 expression Z-Score (listed as P35): -1.1107 and -1.111; NFKB2 expression Z-Score (listed as P35): -1.5063 and -1.506; TNFRSF12A expression Z-Score (listed as P35): -1.0476 and -1.048; TRAF2 expression Z-Score (listed as P35): -0.5479
42: YNGHVKDD [Peptide 42]	lack of effect against the probe genes	0.5389	2.753	0.00216	0.08082	0.2296	0.2228	0.05504	0.02325	0.01684	0.5109	2.683	0.001723	0.07685	0.2119	0.2124	0.04902	0.02357	0.01769	0.5668	HSP90B1 mRNA expression (normalized to NARS2) (replicate column 2): 2.8231; IL6 mRNA expression (normalized to NARS2) (replicate column 2): 0.002596; JUN mRNA expression (normalized to NARS2) (replicate column 2): 0.08479; MAP4K4 mRNA expression (normalized to NARS2) (replicate column 2): 0.2473; MAPK14 mRNA expression (normalized to NARS2) (replicate column 2): 0.2332; NFKB2 mRNA expression (normalized to NARS2) (replicate column 2): 0.06106; TNFRSF12A mRNA expression (normalized to NARS2) (replicate column 2): 0.02293; TRAF2 mRNA expression (normalized to NARS2) (replicate column 2): 0.01599; BIRC2 expression Z-Score (listed as P42): -0.1362; HSP90B1 expression Z-Score (listed as P42): 0.9131; IL6 expression Z-Score (listed as P42): 0.2346; JUN expression Z-Score (listed as P42): -0.1905; MAP4K4 expression Z-Score (listed as P42): 1.1128 and 1.113; MAPK14 expression Z-Score (listed as P42): 0.3913; NFKB2 expression Z-Score (listed as P42): 1.3869 and 1.387; TNFRSF12A expression Z-Score (listed as P42): 0.3098; TRAF2 expression Z-Score (listed as P42): -0.1276
1: GNGTDDNSGTSY [Peptide 1]	lack of effect against the probe genes	0.5966	1.937	0.002365	0.07082	0.1707	0.1634	0.03922	0.01975	0.011	0.538	1.874	0.002307	0.06535	0.1695	0.1671	0.04144	0.01871	0.009637	0.6552	HSP90B1 mRNA expression (normalized to NARS2) (replicate column 2): 2.001; IL6 mRNA expression (normalized to NARS2) (replicate column 2): 0.002424; JUN mRNA expression (normalized to NARS2) (replicate column 2): 0.07629; MAP4K4 mRNA expression (normalized to NARS2) (replicate column 2): 0.1719; MAPK14 mRNA expression (normalized to NARS2) (replicate column 2): 0.1597; NFKB2 mRNA expression (normalized to NARS2) (replicate column 2): 0.037; TNFRSF12A mRNA expression (normalized to NARS2) (replicate column 2): 0.0208; TRAF2 mRNA expression (normalized to NARS2) (replicate column 2): 0.01237; BIRC2 expression Z-Score (listed as P1): 0.2639; HSP90B1 expression Z-Score (listed as P1): -0.5389; IL6 expression Z-Score (listed as P1): 0.4124; JUN expression Z-Score (listed as P1): -0.3055; MAP4K4 expression Z-Score (listed as P1): -0.3569; MAPK14 expression Z-Score (listed as P1): -0.6461; NFKB2 expression Z-Score (listed as P1): -0.1191; TNFRSF12A expression Z-Score (listed as P1): -0.0875 and -0.08748; TRAF2 expression Z-Score (listed as P1): -0.4104
